According to ChEMBL document CHEMBL4196193, “Calothrixamides A and B from the Cultured Cyanobacterium Calothrix sp. UIC 10520” (J Nat Prod, 2018):
The source made the active and inactive calls. The calls are words filed in the database; no cut-off is given here.

Experiments:
Type in all cases: functional, cell-based
OVCAR-3 [1] = assay: Cytotoxicity against human OVCAR3 cells at 10 uM after 72 hrs by CellTiter 96 AQueous One Solution Cell Proliferation Assay
MDA-MB-231 [2] = assay: Cytotoxicity against human MDA-MB-231 cells at 10 uM after 72 hrs by CellTiter 96 AQueous One Solution Cell Proliferation Assay
MDA-MB-435 [3] = assay: Cytotoxicity against human MDA-MB-435 cells at 10 uM after 72 hrs by CellTiter 96 AQueous One Solution Cell Proliferation Assay
MDA-MB-435 [4] = assay: Cytotoxicity against human MDA-MB-435 cells after 72 hrs by CellTiter 96 AQueous One Solution Cell Proliferation Assay; settings: MDA-MB-435, 72 h
MDA-MB-231 [5] = assay: Cytotoxicity against human MDA-MB-231 cells after 72 hrs by CellTiter 96 AQueous One Solution Cell Proliferation Assay; settings: MDA-MB-231, 72 h
OVCAR-3 [6] = assay: Cytotoxicity against human OVCAR3 cells after 72 hrs by CellTiter 96 AQueous One Solution Cell Proliferation Assay; settings: OVCAR-3, 72 h

Structure (SMILES)	Activity (OVCAR-3 [1])	Activity (MDA-MB-231 [2])	Activity (MDA-MB-435 [3])	IC50 (MDA-MB-435 [4])	IC50 (MDA-MB-231 [5])	IC50 (OVCAR-3 [6])
C=CCCCC[C@H](C)[C@@H](CCCCCCCCC(C)/C=C\C=C(/C)C(=O)N[C@@H](C)CO)OC(N)=O (some centres undefined)	inactive	inactive	inactive	–	–	–
CCCCCC[C@H](C)[C@@H](CCCCCCCCC(C)/C=C\C=C(/C)C(=O)N[C@@H](C)CO)OC(N)=O (some centres undefined)	inactive	inactive	inactive	–	–	–
CC(=O)O[C@H]1C(=O)[C@@]2(C)[C@H]([C@H](OC(=O)c3ccccc3)[C@]3(O)C[C@H](OC(=O)[C@H](O)[C@@H](NC(=O)c4ccccc4)c4ccccc4)C(C)=C1C3(C)C)[C@]1(OC(C)=O)CO[C@@H]1C[C@@H]2O [PACLITAXEL]	–	–	–	3.1 nM	2.6 nM	7.5 nM
